How the values were obtained:
CD8+ T cells = assay: In vitro immunogenicity: T-cell priming with aAPCs loaded with peptide/MHC and anti-CD28, pMHC multimer readout; format: cell-based, human; conditions: HLA-A*02 restricted peptides
Description: In an aspect, the peptides are pre-screened for immunogenicity before being included in the warehouse. By way of example, and not limitation, the immunogenicity of the peptides included in the warehouse is determined by a method comprising in vitro T-cell priming through repeated stimulations of CD8+ T cells from healthy donors with artificial antigen presenting cells loaded with peptide/MHC complexes and anti-CD28 antibody.
In order to obtain information regarding the immunogenicity of the TUMAPs of the present invention, the inventors performed investigations using an in vitro T-cell priming assay based on repeated stimulations of CD8+ T cells with artificial antigen presenting cells (aAPCs) loaded with peptide/MHC complexes and anti-CD28 antibody.
In order to perform in vitro stimulations by artificial antigen presenting cells loaded with peptide-MHC complex (pMHC) and anti-CD28 antibody, the inventors first isolated CD8+ T cells from fresh HLA-A*02 leukapheresis products via positive selection using CD8 microbeads (Miltenyi Biotec, Bergisch-Gladbach, Germany) of healthy donors obtained from the University clinics Mannheim, Germany, after informed consent.
PBMCs and isolated CD8+ lymphocytes were incubated in T-cell medium (TCM) until use consisting of RPMI-Glutamax (Invitrogen, Karlsruhe, Germany) supplemented with 10% heat inactivated human AB serum (PAN-Biotech, Aidenbach, Germany), 100 U/ml Penicillin/100 μg/ml Streptomycin (Cambrex, Cologne, Germany), 1 mM sodium pyruvate (CC Pro, Oberdorla, Germany), 20 μg/ml Gentamycin (Cambrex). 2.5 ng/ml IL-7 (PromoCell, Heidelberg, Germany) and 10 U/ml IL-2 (Novartis Pharma, Nürnberg, Germany) were also added to the TCM at this step.
Generation of pMHC/anti-CD28 coated beads, T-cell stimulations and readout was performed in a highly defined in vitro system using four different pMHC molecules per stimulation condition and 8 different pMHC molecules per readout condition.
The purified co-stimulatory mouse IgG2a anti human CD28 Ab 9.3 (Jung et al., 1987) was chemically biotinylated using Sulfo-N-hydroxysuccinimidobiotin as recommended by the manufacturer (Perbio, Bonn, Germany). Beads used were 5.6 μm diameter streptavidin coated polystyrene particles (Bangs Laboratories, Illinois, USA).
pMHC used for positive and negative control stimulations were A*0201/MLA-001 (peptide […] (SEQ ID NO. 664) from modified Melan-A/MART-1) and A*0201/DDX5-001 ([…] from DDX5, SEQ ID NO. 665), respectively.
800.000 beads/200 μl were coated in 96-well plates in the presence of 4×12.5 ng different biotin-pMHC, washed and 600 ng biotin anti-CD28 were added subsequently in a volume of 200 μl. Stimulations were initiated in 96-well plates by co-incubating […] CD8+ T cells with 2×10^5 washed coated beads in 200 μl TCM supplemented with 5 ng/ml IL-12 (PromoCell) for 3 days at 37° C. Half of the medium was then exchanged by fresh TCM supplemented with 80 U/ml IL-2 and incubating was continued for 4 days at 37° C. This stimulation cycle was performed for a total of three times. For the pMHC multimer readout using 8 different pMHC molecules per condition, a two-dimensional combinatorial coding approach was used as previously described (Andersen et al., 2012) with minor modifications encompassing coupling to 5 different fluorochromes. Finally, multimeric analyses were performed by staining the cells with Live/dead near IR dye (Invitrogen, Karlsruhe, Germany), CD8-FITC antibody clone SK1 (BD, Heidelberg, Germany) and fluorescent pMHC multimers. For analysis, a BD LSRII SORP cytometer equipped with appropriate lasers and filters was used. Peptide specific cells were calculated as percentage of total CD8+ cells. Evaluation of multimeric analysis was done using the FlowJo software (Tree Star, Oregon, USA). In vitro priming of specific multimer+ CD8+ lymphocytes was detected by comparing to negative control stimulations. […]

HLA-A*02:01 = HLA-A*02:01 (Homo sapiens, UniProt P04439, D140Y/D185E/D98H/E176V/E277Q/G131W/G231S/I119V/I121R/I166T/I218V/L300P/L318F/N151K/N90K/P208A/P217A/Q86G/Q94H/R138H/R169H/T345S); assay: MHC binding assay (UV-ligand exchange, beta2m ELISA, peptide exchange yield); conditions: binding of HLA-class I restricted peptides to HLA-A*02:01, ranged by peptide exchange yield (UV-ligand exchange, β2m ELISA)
Method in brief: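 Peptide–HLA-A*02:01 complexes made by UV-mediated exchange of a photocleavable peptide with the test peptide. Exchange products diluted 100-fold on streptavidin-coated plates, 1 h at 37°C, then HRP anti-β2m 1 h at 37°C; TMB read at 450 nm to give exchange yield.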

Peptide exchange (HLA-A*02:01)	Substance	Wells positive [%] (CD8+ T cells)
″+++″ (≥50% = +++)	113 (GLLPTPLFGV; listed as Homo sapiens) [compound 113]	″+″ (<20% = +)
″+++″ (≥50% = +++)	38 (FLLEDDIHVS; listed as Homo sapiens) [compound 38]	″+″ (<20% = +)
″++″ (≥20% = ++)	36 (YVLEDLEVTV; listed as Homo sapiens) [compound 36]	″+″ (<20% = +)
″+++″ (≥50% = +++)	199 (ALQDVPLSSV; listed as Homo sapiens) [compound 199]	″+″ (<20% = +)
″+++″ (≥50% = +++)	48 (ALAELYEDEV; listed as Homo sapiens) [compound 48]	″+″ (<20% = +)
″++++″ (≥75% = ++++)	60 (SLTIDGIYYV; listed as Homo sapiens) [compound 60]	″++++″ (> = 70% = ++++)
″++″ (≥20% = ++)	603 (FLIEPEHVNTV; listed as Homo sapiens) [compound 603]	″+″ (<20% = +)
″++++″ (≥75% = ++++)	143 (LLLDITPEI; listed as Homo sapiens) [compound 143]	″+″ (<20% = +)
″++++″ (≥75% = ++++)	8 (FTLGNVVGMYL; listed as Homo sapiens) [compound 8]	″+″ (<20% = +)
″++++″ (≥75% = ++++)	3 (SLASKLTTL; listed as Homo sapiens) [compound 3]	″+″ (<20% = +)

— patent US10253076B2, “Peptides and combination of peptides for use in immunotherapy against ovarian cancer and other cancers” (immatics biotechnologies GmbH, priority 2015, dated 2019)
